Where two headings read alike, the source gives them in different places.
Experiments:
[1] = cited from earlier work
colon carcinoma model = colon carcinoma model ref 34; cited from earlier work
[2] = cited from earlier work; remark: listed apart in the source
solid tumors = conditions: cited from earlier work
[3] = single-agent sorafenib, same dose regimen ref 17; cited from earlier work
clinical = conditions: human, plasma, oral
[4] = Plasma pharmacokinetics of sorafenib given with irinotecan; conditions: pediatric patients, combination therapy
[5] = human, in vivo, po, 70 mg/m2
[6] = single agent, pediatric phase 1 trials ref 26, 27, 44

Compound: CCc1c2c(nc3ccc(O)cc13)-c1cc3c(c(=O)n1C2)COC(=O)[C@]3(O)CC [SN38, 7-ethyl-10-hydroxy camptothecin]
- extent of metabolic conversion from SN38 to SN38-G ([1]; adults ref 45, 46): 6.9–13.4
- CMAX ([1]; oral irinotecan 60 mg/m^2 in adults ref 47): 7.4 ± 4.4 ng/mL
- AUCINF ([1]; oral irinotecan study in adults ref 47): 58.7 ± 31 ng·h/mL
- t1/2 ([1]; oral study in adults ref 47): 11.9 h
- extent of metabolic conversion from SN38 to SN38-G ([1]; other pediatric reports ref 48, 49): 1.6–4.1
- t1/2 ([1]; reported pediatric ranges ref 48): 7.3 to 18.5 h
- mean extent of metabolic conversion from SN38 to SN38-G (oral irinotecan 70 mg/m^2 with sorafenib, pediatric patients): 3.73

Compound: CCc1c2c(nc3ccc(OC(=O)N4CCC(N5CCCCC5)CC4)cc13)-c1cc3c(c(=O)n1C2)COC(=O)[C@]3(O)CC [Irinotecan]
- growth delay (colon carcinoma model): 71%
- MTD of oral irinotecan with temozolomide and vincristine ([2]; 5 days for 2 weeks with temozolomide 100 mg/m^2/day ref 33): 35 mg/m^2/daily
- MTD, short course oral irinotecan ([2]; daily for 5 days every 21 days, solid tumors, patients < 65 years of age ref 31): 65 mg/m^2/dose
- MTD, protracted course of oral irinotecan ([2]; daily × 5 days for 2 weeks, pediatric patients, with cefixime ref 30): 60 mg/m^2/dose
- MTD of oral irinotecan with temozolomide and vincristine ([2]; daily × 5 days with temozolomide 150 mg/m^2/day ref 33): 90 mg/m^2/daily
- MTD, protracted course of oral irinotecan with temozolomide ([2]; patients with neuroblastoma ref 32): 60 mg/m^2/day
- mixed response and/or SD rates (solid tumors; [6]): 20–26%
- partial response rates (solid tumors; [6]): 0 to 6%
- absolute oral bioavailability ([1]; irinotecan solution ref 47): 17%
- AUC(0-inf) (human, plasma, po, 70 mg/m2): 594 ± 299 ng·h/mL
- CMAX (human, plasma, po, 70 mg/m2): 93.9 ± 60.8 ng/mL
- Tmax (human, plasma, po, 70 mg/m2): 1.97 ± 0.85 h
- mean dose-normalized CMAX (CMAX/D) (oral irinotecan 70 mg/m^2 with sorafenib, range 0.18–3.49): 1.14 ng/mL/mg
- dose-normalized AUCINF (AUCINF/D) (oral irinotecan 70 mg/m^2 with sorafenib, range 1.7–19.5): 7.1 ng·h/mL/mg

Compound: CNC(=O)c1cc(Oc2ccc(NC(=O)Nc3ccc(Cl)c(C(F)(F)F)c3)cc2)ccn1 [Sorafenib]
- growth delay (colon carcinoma model): 100%
- prolonged SD (solid tumors; phase 2, Wilms tumor, 2 of 10 patients ref 18): 20%
- responses (solid tumors; phase 2, cohort with rhabdomyosarcoma ref 18): no responses
- Tmax [3]: 4.98 h
- mean CMAX/D [3]: 8.33 ng/mL/mg
- Tmax (clinical): 6.4 h
- age-dependent difference in AUC [4]: no significant age-dependent difference

Compound: CCc1c2c(nc3ccc(O[C@@H]4O[C@H](C(=O)O)[C@@H](O)[C@H](O)[C@H]4O)cc13)-c1cc3c(c(=O)n1C2)COC(=O)[C@]3(O)CC [SN38-G]
- AUCINF [5]: 62.1 ± 35.4 (57.0%) hr•ng/mL
- CMAX [5]: 5.50 ± 3.38 (61.4%) ng/mL
- Tmax [5]: 3.17 ± 1.09 (34.2%) hr
- AUCINF ([1]; human, in vivo): 30.8 to 153 ng·h/mL
- CMAX ([1]; in vivo, po, 60 mg/m2): 21.7 ± 15.2 ng/mL
- AUCINF ([1]; in vivo, po): 356 ± 348 ng·h/mL

From paper PMC10197018 (Pediatric blood & cancer, 2021)
